According to article PMC5963734 (Neuron, 2018):

System: PSD-95 - α-actinin interaction
Details: acute forebrain slices, 100 μM NMDA for 5 min; Figure 7

Compound: CN[C@H](CC(=O)O)C(=O)O [NMDA]
- co-IP of CaM with PSD-95 after NMDA: strongly increased
- co-IP of α-actinin with PSD-95 after NMDA: nearly abolished
